{"source": "BindingDB's records for doi:10.1021/acschembio.5b00291", "about": "(Ujf-Embl-Cnrs, 2015)", "test_in_all_cases": "Isothermal Titration Calorimetry (ITC)", "conditions_in_all_cases": "pH 8; 25 °C", "key": {"[1]": {"biological_target": "Leucine--tRNA ligase [A132I,E138V,K510A,I952T] (Candida albicans (strain WO-1), UniProt A0A1D8PS12, A132I/E138V/I952T/K510A)", "sequence (A0A1D8PS12 whole entry A132I/E138V/K510A/I952T, the tested form may be a part)": "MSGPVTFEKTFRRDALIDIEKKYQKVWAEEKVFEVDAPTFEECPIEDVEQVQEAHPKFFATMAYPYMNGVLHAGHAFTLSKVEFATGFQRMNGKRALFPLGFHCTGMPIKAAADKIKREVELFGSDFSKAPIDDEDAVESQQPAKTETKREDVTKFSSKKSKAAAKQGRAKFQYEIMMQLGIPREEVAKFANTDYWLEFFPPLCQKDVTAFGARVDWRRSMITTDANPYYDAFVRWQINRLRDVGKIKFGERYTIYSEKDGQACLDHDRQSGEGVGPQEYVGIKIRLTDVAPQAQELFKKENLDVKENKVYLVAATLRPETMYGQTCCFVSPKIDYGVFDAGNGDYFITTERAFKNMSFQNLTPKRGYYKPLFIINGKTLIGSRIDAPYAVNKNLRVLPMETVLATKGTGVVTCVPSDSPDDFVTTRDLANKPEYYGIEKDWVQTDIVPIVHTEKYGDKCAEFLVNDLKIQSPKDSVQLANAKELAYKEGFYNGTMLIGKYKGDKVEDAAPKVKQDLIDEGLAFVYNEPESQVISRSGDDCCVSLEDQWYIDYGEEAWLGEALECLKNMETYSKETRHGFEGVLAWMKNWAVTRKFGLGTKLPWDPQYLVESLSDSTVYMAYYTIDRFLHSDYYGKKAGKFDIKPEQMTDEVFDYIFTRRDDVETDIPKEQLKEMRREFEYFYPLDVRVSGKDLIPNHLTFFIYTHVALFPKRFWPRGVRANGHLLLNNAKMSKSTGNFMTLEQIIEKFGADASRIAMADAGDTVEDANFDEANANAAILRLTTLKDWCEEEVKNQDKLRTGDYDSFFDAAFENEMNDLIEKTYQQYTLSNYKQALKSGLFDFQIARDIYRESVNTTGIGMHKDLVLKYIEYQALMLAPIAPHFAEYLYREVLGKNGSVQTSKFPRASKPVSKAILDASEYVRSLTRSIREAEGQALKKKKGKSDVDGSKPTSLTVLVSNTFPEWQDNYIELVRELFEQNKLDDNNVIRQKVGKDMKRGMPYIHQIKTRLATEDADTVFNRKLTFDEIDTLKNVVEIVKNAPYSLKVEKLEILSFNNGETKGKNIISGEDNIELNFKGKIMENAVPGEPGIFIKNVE", "method": "(§1) ITC was performed using LeuRS CP1 domain wild-type, K510E mutant, or K510A mutant against AN2690-AMP at 25 °C by an ITC200 system (MicroCal, GE Healthcare). Wildtype protein and mutants were dialyzed against the titration buffer (50 mM HEPES-KOH, 30 mM KCl and 30 mM MgCl2, pH 8.0). Compound AN2690 and AMP were also prepared in the same buffer. A 60 μM protein solution was in the presence of 10 mM AMP in the calorimetric cell and titrated using 26 stepwise injections of 1.5 μL each with the compound AN2690 plus AMP. AN2690 solutions were placed in the syringe at 0.7 to 3 mM (depending on the expected affinity) along with 10 mM AMP. The heat generated after each ligand injection was measured base on the integral of the calorimetric signal. The resultant binding isotherms were analyzed by a nonlinear least-squares fit of the experimental data to a single site model using Microcal Origin 7.0 software. Experiments were duplicated and variability estimated to be 5% in the binding"}, "[2]": {"biological_target": "Leucine--tRNA ligase [A132I,E138V,K510E,I952T] (Candida albicans (strain WO-1), UniProt A0A1D8PS12, A132I/E138V/I952T/K510E)", "sequence (A0A1D8PS12 whole entry A132I/E138V/K510E/I952T)": "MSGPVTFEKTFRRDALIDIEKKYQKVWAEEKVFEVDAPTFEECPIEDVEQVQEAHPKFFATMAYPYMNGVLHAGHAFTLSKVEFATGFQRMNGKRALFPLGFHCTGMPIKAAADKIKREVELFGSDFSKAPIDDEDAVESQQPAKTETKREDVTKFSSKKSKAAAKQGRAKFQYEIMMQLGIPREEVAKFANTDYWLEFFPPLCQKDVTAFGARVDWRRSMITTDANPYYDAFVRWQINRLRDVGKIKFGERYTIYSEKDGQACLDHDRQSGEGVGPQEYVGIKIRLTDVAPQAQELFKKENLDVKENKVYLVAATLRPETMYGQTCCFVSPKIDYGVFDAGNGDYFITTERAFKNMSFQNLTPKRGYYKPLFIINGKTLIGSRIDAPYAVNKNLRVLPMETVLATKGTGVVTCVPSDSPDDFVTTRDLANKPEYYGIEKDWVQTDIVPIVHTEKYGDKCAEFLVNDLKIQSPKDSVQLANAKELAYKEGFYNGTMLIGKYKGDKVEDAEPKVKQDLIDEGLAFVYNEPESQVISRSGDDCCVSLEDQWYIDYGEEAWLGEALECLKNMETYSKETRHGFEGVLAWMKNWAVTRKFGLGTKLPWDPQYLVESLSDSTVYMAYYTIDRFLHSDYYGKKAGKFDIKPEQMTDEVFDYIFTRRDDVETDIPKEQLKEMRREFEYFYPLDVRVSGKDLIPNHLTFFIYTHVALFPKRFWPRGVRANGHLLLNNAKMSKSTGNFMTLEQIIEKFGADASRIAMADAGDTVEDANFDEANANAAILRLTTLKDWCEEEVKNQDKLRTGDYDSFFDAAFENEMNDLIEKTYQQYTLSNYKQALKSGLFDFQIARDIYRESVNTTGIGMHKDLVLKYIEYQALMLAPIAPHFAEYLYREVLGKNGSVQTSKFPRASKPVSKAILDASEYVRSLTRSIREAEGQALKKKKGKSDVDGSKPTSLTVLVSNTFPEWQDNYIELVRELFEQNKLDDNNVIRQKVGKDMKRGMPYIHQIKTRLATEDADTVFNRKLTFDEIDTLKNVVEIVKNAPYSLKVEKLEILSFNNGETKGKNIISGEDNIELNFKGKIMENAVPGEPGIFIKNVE", "method": "as §1"}, "Leucine--tRNA ligase": {"biological_target": "T1, Leucine--tRNA ligase (Candida albicans (strain WO-1), UniProt C4YL05)", "T1 sequence (C4YL05 whole entry)": "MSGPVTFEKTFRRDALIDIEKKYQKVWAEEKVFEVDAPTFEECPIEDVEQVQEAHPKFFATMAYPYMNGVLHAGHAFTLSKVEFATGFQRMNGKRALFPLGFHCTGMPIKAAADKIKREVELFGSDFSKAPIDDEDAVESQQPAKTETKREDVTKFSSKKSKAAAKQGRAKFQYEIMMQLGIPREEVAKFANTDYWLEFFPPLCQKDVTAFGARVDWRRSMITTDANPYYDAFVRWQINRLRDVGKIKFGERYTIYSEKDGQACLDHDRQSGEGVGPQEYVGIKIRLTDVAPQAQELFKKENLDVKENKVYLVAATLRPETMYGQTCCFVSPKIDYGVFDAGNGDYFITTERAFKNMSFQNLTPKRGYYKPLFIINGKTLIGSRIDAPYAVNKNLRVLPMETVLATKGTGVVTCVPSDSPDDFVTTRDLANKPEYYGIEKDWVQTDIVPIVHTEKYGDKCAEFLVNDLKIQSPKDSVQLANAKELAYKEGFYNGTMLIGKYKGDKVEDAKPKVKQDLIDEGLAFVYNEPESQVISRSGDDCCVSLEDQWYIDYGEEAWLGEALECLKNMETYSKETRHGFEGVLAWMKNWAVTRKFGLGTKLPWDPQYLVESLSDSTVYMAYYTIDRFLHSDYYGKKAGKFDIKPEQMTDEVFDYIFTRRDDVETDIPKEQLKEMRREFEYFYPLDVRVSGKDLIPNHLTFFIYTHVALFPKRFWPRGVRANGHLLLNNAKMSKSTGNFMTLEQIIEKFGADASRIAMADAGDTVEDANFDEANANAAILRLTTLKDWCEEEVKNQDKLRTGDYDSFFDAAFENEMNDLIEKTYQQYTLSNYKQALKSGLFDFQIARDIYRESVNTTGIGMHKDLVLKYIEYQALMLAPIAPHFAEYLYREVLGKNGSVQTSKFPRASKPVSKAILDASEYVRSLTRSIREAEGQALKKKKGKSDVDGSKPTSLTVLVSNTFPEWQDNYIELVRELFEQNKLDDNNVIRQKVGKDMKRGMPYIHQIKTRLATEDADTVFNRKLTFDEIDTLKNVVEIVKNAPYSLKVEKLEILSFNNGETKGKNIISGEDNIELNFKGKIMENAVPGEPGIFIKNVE", "method": "as §1"}}, "data": [{"smiles": "CC[C@H]1O[C@@H](n2cnc3c(N)ncnc32)[C@H]2O[B-]3(OCc4cc(F)ccc43)OC12", "note": "(stereo partly drawn) [AN2690-AMP]", "values": [{"measurement": "Kd", "setting": "[1]", "result": 46, "unit": "µM"}, {"measurement": "Kd", "setting": "[2]", "result": 21, "unit": "µM"}, {"measurement": "Kd", "setting": "Leucine--tRNA ligase", "result": 0.7, "unit": "µM"}]}]}
